Organism: Rattus norvegicus
Assay: Open TG-GATES - Regimen: Single
Format: toxicity, organism-based, Sprague-Dawley
Set-up: regimen Single, gender Male, age 6 weeks
Settings: in vivo, po, 50 mg/kg, route gavage, dose level Middle; for APTT / Bas / Eos / Fbg / Hb / Ht / Lym / MCH / MCHC / MCV / Mono / Neu / PT / Plat / RBC / Ret / WBC: tissue Blood; for KIDNEY_L / KIDNEY_R / KIDNEY_TOTAL: tissue Kidney; for LIVER: tissue Liver; for A/G / ALP / ALT / AST / BUN / CRE / Ca / Cl / DBIL / GLC / IP / K / LDH / Na / PL / RALB / TBIL / TC / TG / TP / gamma-GTP: tissue Plasma

CC(C)C(=O)Nc1ccc([N+](=O)[O-])c(C(F)(F)F)c1 [FLUTAMIDE]
TERMINAL_BW (3 h): 209.6 g | APTT (3 h): 18.6 s | Bas (3 h): 0% | Eos (3 h): 1% | Fbg (3 h): 216.6 mg/dL | Hb (3 h): 13.4 g/dL | Ht (3 h): 39.1% | Lym (3 h): 73.6% | MCH (3 h): 21.5 pg | MCHC (3 h): 34.2% | MCV (3 h): 63 fL | Mono (3 h): 2.8% | Neu (3 h): 21.4% | PT (3 h): 12.7 s | Plat (3 h): 136.9 x10_4/uL | RBC (3 h): 621 x10_4/ul | Ret (3 h): 7.8% | WBC (3 h): 82.5 x10_2/uL | KIDNEY_L (3 h): 0.9 g | KIDNEY_R (3 h): 0.9 g | KIDNEY_TOTAL (3 h): 1.8 g | LIVER (3 h): 9.6 g | A/G (3 h): 1.7 | ALP (3 h): 785.4 IU/L | ALT (3 h): 35.8 IU/L | AST (3 h): 64 IU/L | BUN (3 h): 12 mg/dL | CRE (3 h): 0.4 mg/dL | Ca (3 h): 10.7 mg/dL | Cl (3 h): 103.4 meq/L | DBIL (3 h): 0.1 mg/dL | GLC (3 h): 199.4 mg/dL | IP (3 h): 9.9 mg/dL | K (3 h): 4.1 meq/L | LDH (3 h): 168.4 IU/L | Na (3 h): 140 meq/L | PL (3 h): 158.6 mg/dL | RALB (3 h): 3.5 g/dL | TBIL (3 h): 0.2 mg/dL | TC (3 h): 80.2 mg/dL | TG (3 h): 86.8 mg/dL | TP (3 h): 5.6 g/dL | gamma-GTP (3 h): 1.2 IU/L | TERMINAL_BW (6 h): 209.1 g | APTT (6 h): 18.9 s | Bas (6 h): 0% | Eos (6 h): 0.8% | Fbg (6 h): 220.4 mg/dL | Hb (6 h): 13.2 g/dL | Ht (6 h): 38.3% | Lym (6 h): 75% | MCH (6 h): 21.8 pg | MCHC (6 h): 34.6% | MCV (6 h): 63 fL | Mono (6 h): 3.4% | Neu (6 h): 20.4% | PT (6 h): 13 s | Plat (6 h): 126.7 x10_4/uL | RBC (6 h): 608.4 x10_4/ul | Ret (6 h): 7.8% | WBC (6 h): 89.5 x10_2/uL | KIDNEY_L (6 h): 1 g | KIDNEY_R (6 h): 0.9 g | KIDNEY_TOTAL (6 h): 1.9 g | LIVER (6 h): 8.9 g | A/G (6 h): 1.6 | ALP (6 h): 921.6 IU/L | ALT (6 h): 33.4 IU/L | AST (6 h): 68.2 IU/L | BUN (6 h): 7.6 mg/dL | CRE (6 h): 0.4 mg/dL | Ca (6 h): 10.6 mg/dL | Cl (6 h): 101.6 meq/L | DBIL (6 h): 0.082 mg/dL | GLC (6 h): 196 mg/dL | IP (6 h): 9.9 mg/dL | K (6 h): 3.9 meq/L | LDH (6 h): 129.2 IU/L | Na (6 h): 140 meq/L | PL (6 h): 140.8 mg/dL | RALB (6 h): 3.4 g/dL | TBIL (6 h): 0.1 mg/dL | TC (6 h): 79.6 mg/dL | TG (6 h): 40.2 mg/dL | TP (6 h): 5.5 g/dL | gamma-GTP (6 h): 1.2 IU/L | TERMINAL_BW (9 h): 207.5 g | APTT (9 h): 18.7 s | Bas (9 h): 0% | Eos (9 h): 1% | Fbg (9 h): 227 mg/dL | Hb (9 h): 13.1 g/dL | Ht (9 h): 38.6% | Lym (9 h): 76.6% | MCH (9 h): 21.9 pg | MCHC (9 h): 34.1% | MCV (9 h): 64.3 fL | Mono (9 h): 3% | Neu (9 h): 18.6% | PT (9 h): 13 s | Plat (9 h): 135.1 x10_4/uL | RBC (9 h): 601.2 x10_4/ul | Ret (9 h): 8.2% | WBC (9 h): 75 x10_2/uL | KIDNEY_L (9 h): 0.9 g | KIDNEY_R (9 h): 0.9 g | KIDNEY_TOTAL (9 h): 1.8 g | LIVER (9 h): 8.6 g | A/G (9 h): 1.7 | ALP (9 h): 922.4 IU/L | ALT (9 h): 30.2 IU/L | AST (9 h): 61.2 IU/L | BUN (9 h): 9.8 mg/dL | CRE (9 h): 0.3 mg/dL | Ca (9 h): 10.3 mg/dL | Cl (9 h): 103.8 meq/L | DBIL (9 h): 0.088 mg/dL | GLC (9 h): 207.4 mg/dL | IP (9 h): 9.9 mg/dL | K (9 h): 3.8 meq/L | LDH (9 h): 123.2 IU/L | Na (9 h): 140.6 meq/L | PL (9 h): 153.2 mg/dL | RALB (9 h): 3.4 g/dL | TBIL (9 h): 0.2 mg/dL | TC (9 h): 81.2 mg/dL | TG (9 h): 53.6 mg/dL | TP (9 h): 5.4 g/dL | gamma-GTP (9 h): 1.2 IU/L | TERMINAL_BW (24 h): 216.8 g | APTT (24 h): 18.2 s | Bas (24 h): 0% | Eos (24 h): 1% | Fbg (24 h): 209.6 mg/dL | Hb (24 h): 13.7 g/dL | Ht (24 h): 40.6% | Lym (24 h): 77.6% | MCH (24 h): 21.6 pg | MCHC (24 h): 33.8% | MCV (24 h): 63.7 fL | Mono (24 h): 3.2% | Neu (24 h): 17% | PT (24 h): 12.9 s | Plat (24 h): 132.9 x10_4/uL | RBC (24 h): 637 x10_4/ul | Ret (24 h): 6.7% | WBC (24 h): 93 x10_2/uL | KIDNEY_L (24 h): 0.9 g | KIDNEY_R (24 h): 0.9 g | KIDNEY_TOTAL (24 h): 1.8 g | LIVER (24 h): 10.5 g | A/G (24 h): 1.5 | ALP (24 h): 950.6 IU/L | ALT (24 h): 38.2 IU/L | AST (24 h): 65.8 IU/L | BUN (24 h): 16 mg/dL | CRE (24 h): 0.4 mg/dL | Ca (24 h): 10.5 mg/dL | Cl (24 h): 103.2 meq/L | DBIL (24 h): 0.1 mg/dL | GLC (24 h): 203.4 mg/dL | IP (24 h): 6.8 mg/dL | K (24 h): 3.8 meq/L | LDH (24 h): 145.2 IU/L | Na (24 h): 140.6 meq/L | PL (24 h): 141.2 mg/dL | RALB (24 h): 3.4 g/dL | TBIL (24 h): 0.2 mg/dL | TC (24 h): 80 mg/dL | TG (24 h): 83.4 mg/dL | TP (24 h): 5.7 g/dL | gamma-GTP (24 h): 1 IU/L

From ChEMBL document CHEMBL3885861, “Open TG-GATES”
